Active and inactive are the calls of the source.
Legend:
[1] = biological target: T1, Type-1 angiotensin II receptor (Homo sapiens, UniProt P30556); test: antagonism of angiotensin II type 1 receptor – cell-based, uHTS hits, selectivity assay for APJ receptor antagonist project, dose response (AID 463214); format: functional;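 note: antagonist potency against angiotensin II stimulated AT1 response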
T1 sequence (P30556 whole entry): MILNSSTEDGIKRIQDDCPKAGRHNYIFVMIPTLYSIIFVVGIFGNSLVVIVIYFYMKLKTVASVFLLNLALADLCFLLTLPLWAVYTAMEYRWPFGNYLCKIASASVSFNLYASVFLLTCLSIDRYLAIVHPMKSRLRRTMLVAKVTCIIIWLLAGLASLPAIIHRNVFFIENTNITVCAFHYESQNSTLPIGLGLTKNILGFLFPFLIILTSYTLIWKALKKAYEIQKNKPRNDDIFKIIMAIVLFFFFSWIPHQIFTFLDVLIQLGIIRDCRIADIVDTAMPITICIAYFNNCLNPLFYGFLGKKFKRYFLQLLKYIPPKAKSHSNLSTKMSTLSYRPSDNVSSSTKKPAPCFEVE

Beta-galactosidase = Beta-galactosidase (Escherichia coli, UniProt Q8VNN2); test: PubChem AID 485352; format: functional
[2] = biological target: Peroxisome proliferator-activated receptor gamma/Nuclear receptor coactivator 1 (Homo sapiens, UniProt P37231); test: TR-FRET dose response biochemical High Throughput Screening assay for agonists of the steroid receptor coactivator 1 (SRC-1) recruitment by the peroxisome proliferator-activated receptor gamma (PPAR gamma): non-selective agonists. [Related pubchem assays (depositor defined):AID1300, AID1808, AID504735, AID631]; format: protein assay
[3] = biological target: Peroxisome proliferator-activated receptor gamma/Nuclear receptor coactivator 2 (Homo sapiens, UniProt P37231); test: (§1) TR-FRET dose response biochemical High Throughput Screening assay for agonists of the steroid receptor coactivator 2 (SRC-2) recruitment by the peroxisome proliferator-activated receptor gamma (PPAR gamma): non-selective agonists. [Related pubchem assays: 1297, 1032 ]; format: functional
[4] = biological target: T2, Short transient receptor potential channel 4 (Mus musculus, UniProt Q9QUQ5); test: block of DAMGO-driven TRPC4 calcium entry – cell-based, HEK293 TRPC4/mu-opioid, Fluo-4 calcium, dose response (AID 434942); format: functional;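 note: potency of inhibitors blocking the TRPC4 calcium response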
T2 sequence (Q9QUQ5 whole entry): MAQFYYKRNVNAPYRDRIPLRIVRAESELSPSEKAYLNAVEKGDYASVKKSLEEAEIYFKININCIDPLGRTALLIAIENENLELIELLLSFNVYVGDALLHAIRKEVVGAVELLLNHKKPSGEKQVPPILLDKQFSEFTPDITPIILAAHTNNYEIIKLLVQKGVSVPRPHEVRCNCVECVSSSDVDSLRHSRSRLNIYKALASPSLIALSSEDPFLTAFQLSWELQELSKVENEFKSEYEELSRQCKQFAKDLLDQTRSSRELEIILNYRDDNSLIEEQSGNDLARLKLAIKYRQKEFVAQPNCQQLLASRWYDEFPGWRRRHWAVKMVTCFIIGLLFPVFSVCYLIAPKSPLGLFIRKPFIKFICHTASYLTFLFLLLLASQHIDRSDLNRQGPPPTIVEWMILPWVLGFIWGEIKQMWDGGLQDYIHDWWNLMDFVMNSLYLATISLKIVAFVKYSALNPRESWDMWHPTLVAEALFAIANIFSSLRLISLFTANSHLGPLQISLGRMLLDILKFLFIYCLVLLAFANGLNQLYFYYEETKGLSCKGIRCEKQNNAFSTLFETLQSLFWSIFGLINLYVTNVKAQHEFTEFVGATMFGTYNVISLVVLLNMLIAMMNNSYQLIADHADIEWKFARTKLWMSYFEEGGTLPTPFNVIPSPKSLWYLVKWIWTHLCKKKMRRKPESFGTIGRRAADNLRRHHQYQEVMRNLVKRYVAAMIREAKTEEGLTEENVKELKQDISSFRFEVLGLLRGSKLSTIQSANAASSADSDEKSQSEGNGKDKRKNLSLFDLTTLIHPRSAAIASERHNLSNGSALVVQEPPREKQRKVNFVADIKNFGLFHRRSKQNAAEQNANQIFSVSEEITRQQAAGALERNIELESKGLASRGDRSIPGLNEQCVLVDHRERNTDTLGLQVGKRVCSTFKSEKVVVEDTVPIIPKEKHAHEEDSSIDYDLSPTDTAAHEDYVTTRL

[5] = biological target: Peroxisome proliferator-activated receptor gamma/Nuclear receptor coactivator 3 (Homo sapiens, UniProt P37231); test: as §1, with “3 (SRC-3)” for “2 (SRC-2)”, “1301 (Confirmation screen.), 1048 (Primary screen.)]” for “1297, 1032 ]”; format: functional
[6] = biological target: DNA (cytosine-5)-methyltransferase 1 (Homo sapiens, UniProt P26358); test: inhibition of DNA methylation by DNMT1 – biochemical, fluorescent molecular beacon, confirmation (AID 602386); format: functional
[7] = biological target: T3, Ubiquitin-conjugating enzyme E2 N (Homo sapiens, UniProt P61088); format: functional;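 note: Dose-response confirmation in a TR-FRET assay detecting UBC13-driven polyubiquitin chain formation, inhibition measured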
T3 sequence (P61088 whole entry): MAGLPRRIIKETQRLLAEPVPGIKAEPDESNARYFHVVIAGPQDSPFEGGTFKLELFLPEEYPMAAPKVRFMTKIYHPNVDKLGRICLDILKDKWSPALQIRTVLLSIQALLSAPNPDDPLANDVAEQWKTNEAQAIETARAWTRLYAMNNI

Cytochrome P450 2C19 = Cytochrome P450 2C19 (Homo sapiens, UniProt P33261); test: Cytochrome panel assay with activity outcomes. Panel member name: p450-cyp2c19 Compounds with AC50 equal or less than 10 uM are considered active; format: functional
BJ [8] = test: BJ-TERT-LT-ST fibroblast viability loss – cell-based, RAS-independent, luminescence, dose response (AID 1935); format: functional; conditions: Homo sapiens;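 note: BJ fibroblasts immortalized with TERT plus LT and ST oncogenes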
BJ [9] = test: cells; format: functional, cell-based; conditions: Homo sapiens
[10] = DRD fibroblast viability loss – cell-based, non-viral oncogenic, luminescence, dose response (AID 1934); format: functional; conditions: Homo sapiens
BJ [11] = test: BJ-TERT fibroblast viability loss – cell-based, RAS-independent, luminescence, dose response (AID 1933); format: functional; conditions: Homo sapiens
[12] = biological target: T4, DNA repair and recombination protein RAD54-like (Homo sapiens, UniProt Q92698); test: RAD54 Holliday junction migration blockers – biochemical, fluorescence, cherry-picked samples, dose series, confirmation (AID 651657); format: functional
T4 sequence (Q92698 whole entry): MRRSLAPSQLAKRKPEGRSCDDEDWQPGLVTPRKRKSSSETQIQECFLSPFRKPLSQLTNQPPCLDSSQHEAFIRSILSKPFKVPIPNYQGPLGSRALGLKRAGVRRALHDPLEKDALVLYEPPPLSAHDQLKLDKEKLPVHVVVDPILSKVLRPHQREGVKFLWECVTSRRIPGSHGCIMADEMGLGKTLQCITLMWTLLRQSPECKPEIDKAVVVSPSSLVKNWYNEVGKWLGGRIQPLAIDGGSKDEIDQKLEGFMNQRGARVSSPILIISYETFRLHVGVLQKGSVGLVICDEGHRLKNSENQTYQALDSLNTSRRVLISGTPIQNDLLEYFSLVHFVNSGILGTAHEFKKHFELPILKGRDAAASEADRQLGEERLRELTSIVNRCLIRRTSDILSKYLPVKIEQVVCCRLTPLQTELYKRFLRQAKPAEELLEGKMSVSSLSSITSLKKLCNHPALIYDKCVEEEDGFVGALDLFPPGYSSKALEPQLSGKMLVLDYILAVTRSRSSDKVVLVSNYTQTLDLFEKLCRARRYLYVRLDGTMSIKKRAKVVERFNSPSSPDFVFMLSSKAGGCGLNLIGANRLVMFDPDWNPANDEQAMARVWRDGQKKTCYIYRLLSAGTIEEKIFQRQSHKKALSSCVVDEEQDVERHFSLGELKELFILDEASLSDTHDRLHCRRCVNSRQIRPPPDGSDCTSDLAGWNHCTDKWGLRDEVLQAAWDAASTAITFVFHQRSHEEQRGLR

[13] = biological target: T5, Microphthalmia-associated transcription factor (Homo sapiens, UniProt O75030); test: reducers of TRPM1 reporter luminescence, concentration series – cell-based, SK-MEL-5, cherry-picked, set 3, MITF inhibitor project, dose response (AID 493073); format: functional;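 note: SK-MEL-5 melanoma cells with luciferase driven by the MITF target TRPM1 promoter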
T5 sequence (O75030 whole entry): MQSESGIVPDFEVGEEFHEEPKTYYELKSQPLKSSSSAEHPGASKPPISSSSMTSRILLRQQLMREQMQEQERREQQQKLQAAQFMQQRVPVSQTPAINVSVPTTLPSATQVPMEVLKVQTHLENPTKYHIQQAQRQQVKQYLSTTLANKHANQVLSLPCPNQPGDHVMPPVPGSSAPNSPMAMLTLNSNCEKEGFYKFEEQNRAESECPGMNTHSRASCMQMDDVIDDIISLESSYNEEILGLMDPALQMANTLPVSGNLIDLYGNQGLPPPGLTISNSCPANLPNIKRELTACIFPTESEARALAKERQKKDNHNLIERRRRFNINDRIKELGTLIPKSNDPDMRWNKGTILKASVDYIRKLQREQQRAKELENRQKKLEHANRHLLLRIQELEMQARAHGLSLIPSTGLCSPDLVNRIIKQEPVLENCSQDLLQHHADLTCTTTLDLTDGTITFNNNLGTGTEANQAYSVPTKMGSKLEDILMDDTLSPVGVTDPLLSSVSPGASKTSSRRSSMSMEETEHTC

INS1 = test: INS-1E survival protection against cytokine death – cell-based, luminescence, retest, dose response (AID 449756); format: functional; conditions: Rattus norvegicus;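 note: cell death triggered by IL-1 beta plus TNF-alpha plus IFN-gamma mixture; protective hits raise ATP signal compared with cytokine alone wells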
[14] = test system: Streptococcus sp. 'group A'; test: Streptococcus pyogenes SK(-)GAS viability under kanamycin – luminescence, BacTiterGlo, confirmation, counter-screen for streptokinase expression inhibitor project, dose response (AID 1900); format: functional, organism-based
Streptococcus = test: GAS UMAA2166 growth inhibition – luminescence, BacTiterGlo, counter-screen for streptokinase expression inhibitor project, dose response (AID 1915); format: functional, organism-based;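 note: potency for reduction of bacterial viability or growth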
[15] = Trypanosoma cruzi growth suppression in host cells – NIH3T3 host cells, beta-gal luminescence, confirmation (AID 2044); format: functional, cell-based;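 note: intracellular parasites grown in NIH/3T3 mouse fibroblasts as host cells; luminescent beta-galactosidase reporter signal from transgenic T. cruzi replicating inside host cells; inhibitors lower the luminescence signal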
[16] = NIH3T3 cell viability loss – ATP luminescence, mouse fibroblasts, counter-screen, dose response (AID 2010); format: functional, cell-based;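 note: cells exposed to compound for about 90 hours before reading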

Sequence of Peroxisome proliferator-activated receptor gamma/Nuclear receptor coactivator 1 (P37231 whole entry): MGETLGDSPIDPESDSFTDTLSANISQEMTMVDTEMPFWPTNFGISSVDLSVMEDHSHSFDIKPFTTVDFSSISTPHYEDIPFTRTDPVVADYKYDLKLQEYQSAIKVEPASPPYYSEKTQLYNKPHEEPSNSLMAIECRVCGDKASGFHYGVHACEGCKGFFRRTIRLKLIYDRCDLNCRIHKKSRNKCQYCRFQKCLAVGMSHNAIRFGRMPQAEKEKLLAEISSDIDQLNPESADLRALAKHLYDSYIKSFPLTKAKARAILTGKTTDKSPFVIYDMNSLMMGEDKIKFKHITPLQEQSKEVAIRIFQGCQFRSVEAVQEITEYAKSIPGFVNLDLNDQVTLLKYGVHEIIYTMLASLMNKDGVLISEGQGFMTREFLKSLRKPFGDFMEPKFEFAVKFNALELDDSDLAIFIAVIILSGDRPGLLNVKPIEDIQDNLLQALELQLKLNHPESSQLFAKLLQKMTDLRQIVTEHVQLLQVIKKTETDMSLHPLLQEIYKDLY
Sequence of Peroxisome proliferator-activated receptor gamma/Nuclear receptor coactivator 1 (Q15788 whole entry, further chain): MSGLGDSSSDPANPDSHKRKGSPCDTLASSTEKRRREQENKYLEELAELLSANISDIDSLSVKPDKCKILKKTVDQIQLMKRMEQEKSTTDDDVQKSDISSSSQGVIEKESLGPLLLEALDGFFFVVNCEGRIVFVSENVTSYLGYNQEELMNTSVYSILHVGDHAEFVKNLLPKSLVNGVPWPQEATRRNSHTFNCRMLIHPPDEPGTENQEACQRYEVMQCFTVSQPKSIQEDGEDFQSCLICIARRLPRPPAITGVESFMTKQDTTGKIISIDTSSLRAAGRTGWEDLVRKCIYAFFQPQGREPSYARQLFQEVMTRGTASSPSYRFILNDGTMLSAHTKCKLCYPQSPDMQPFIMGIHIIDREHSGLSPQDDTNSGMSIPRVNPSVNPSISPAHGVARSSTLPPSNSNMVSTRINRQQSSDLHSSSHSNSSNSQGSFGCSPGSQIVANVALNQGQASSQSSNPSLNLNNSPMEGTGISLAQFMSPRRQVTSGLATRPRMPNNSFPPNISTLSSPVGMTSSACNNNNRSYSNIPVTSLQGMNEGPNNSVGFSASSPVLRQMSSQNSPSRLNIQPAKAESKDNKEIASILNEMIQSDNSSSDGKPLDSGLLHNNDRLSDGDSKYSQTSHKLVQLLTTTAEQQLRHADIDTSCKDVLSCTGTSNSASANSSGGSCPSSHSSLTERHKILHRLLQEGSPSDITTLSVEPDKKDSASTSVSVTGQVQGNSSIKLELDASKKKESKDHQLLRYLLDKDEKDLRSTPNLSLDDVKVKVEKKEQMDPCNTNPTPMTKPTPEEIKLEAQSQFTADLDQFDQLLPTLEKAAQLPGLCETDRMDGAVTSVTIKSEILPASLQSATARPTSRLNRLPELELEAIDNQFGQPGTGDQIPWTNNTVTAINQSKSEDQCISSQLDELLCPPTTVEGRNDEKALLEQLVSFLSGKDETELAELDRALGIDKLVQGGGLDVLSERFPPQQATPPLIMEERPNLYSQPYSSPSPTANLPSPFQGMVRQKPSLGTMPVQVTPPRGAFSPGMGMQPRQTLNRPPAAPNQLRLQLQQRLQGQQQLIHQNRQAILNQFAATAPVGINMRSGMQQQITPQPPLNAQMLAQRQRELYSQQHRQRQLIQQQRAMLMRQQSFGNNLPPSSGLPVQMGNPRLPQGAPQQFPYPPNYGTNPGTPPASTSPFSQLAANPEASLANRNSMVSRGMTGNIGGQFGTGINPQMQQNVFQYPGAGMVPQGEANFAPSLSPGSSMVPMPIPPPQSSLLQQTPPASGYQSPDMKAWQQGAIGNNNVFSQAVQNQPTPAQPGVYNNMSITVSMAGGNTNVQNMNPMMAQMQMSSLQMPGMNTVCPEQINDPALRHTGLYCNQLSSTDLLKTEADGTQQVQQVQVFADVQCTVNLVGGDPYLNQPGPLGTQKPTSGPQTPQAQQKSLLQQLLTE
Sequence of Peroxisome proliferator-activated receptor gamma/Nuclear receptor coactivator 3 (P37231 whole entry): as the sequence (P37231 whole entry) above
Sequence of Peroxisome proliferator-activated receptor gamma/Nuclear receptor coactivator 3 (Q9Y6Q9 whole entry, further chain): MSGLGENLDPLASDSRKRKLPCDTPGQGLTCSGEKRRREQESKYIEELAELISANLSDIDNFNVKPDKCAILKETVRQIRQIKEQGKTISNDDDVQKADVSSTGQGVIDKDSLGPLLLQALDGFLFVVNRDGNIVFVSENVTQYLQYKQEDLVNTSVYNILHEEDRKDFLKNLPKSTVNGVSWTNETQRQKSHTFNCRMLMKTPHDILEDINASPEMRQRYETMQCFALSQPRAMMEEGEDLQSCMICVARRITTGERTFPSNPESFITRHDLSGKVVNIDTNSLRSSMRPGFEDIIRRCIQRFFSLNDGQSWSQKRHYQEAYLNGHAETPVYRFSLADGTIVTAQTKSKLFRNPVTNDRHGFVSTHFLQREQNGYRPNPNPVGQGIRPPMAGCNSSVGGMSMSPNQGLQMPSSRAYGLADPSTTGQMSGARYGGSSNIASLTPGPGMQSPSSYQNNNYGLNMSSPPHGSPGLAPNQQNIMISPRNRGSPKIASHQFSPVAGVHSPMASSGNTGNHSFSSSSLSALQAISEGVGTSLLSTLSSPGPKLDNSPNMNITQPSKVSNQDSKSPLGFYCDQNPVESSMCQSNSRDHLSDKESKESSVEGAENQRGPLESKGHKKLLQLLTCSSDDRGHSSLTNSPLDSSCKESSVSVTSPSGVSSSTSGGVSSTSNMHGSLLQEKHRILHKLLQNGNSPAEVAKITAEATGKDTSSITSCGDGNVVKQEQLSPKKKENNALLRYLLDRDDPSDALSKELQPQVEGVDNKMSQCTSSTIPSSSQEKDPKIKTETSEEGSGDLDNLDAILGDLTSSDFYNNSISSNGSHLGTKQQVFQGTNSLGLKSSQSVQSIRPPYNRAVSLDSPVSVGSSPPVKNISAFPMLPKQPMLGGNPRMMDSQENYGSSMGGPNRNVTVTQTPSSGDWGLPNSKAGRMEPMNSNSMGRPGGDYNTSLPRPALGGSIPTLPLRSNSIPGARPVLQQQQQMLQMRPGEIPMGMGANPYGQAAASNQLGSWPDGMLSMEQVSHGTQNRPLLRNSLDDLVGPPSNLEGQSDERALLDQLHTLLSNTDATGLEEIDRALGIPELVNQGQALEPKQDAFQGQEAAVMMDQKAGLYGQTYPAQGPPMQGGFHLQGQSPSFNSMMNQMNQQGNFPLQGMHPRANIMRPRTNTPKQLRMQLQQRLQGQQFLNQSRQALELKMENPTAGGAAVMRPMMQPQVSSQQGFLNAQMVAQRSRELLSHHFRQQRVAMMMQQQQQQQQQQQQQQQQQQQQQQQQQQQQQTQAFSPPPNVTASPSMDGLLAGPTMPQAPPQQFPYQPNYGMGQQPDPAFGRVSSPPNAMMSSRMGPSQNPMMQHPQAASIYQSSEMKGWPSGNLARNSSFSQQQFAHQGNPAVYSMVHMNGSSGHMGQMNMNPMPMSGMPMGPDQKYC
Sequence of Beta-galactosidase (Q8VNN2 whole entry): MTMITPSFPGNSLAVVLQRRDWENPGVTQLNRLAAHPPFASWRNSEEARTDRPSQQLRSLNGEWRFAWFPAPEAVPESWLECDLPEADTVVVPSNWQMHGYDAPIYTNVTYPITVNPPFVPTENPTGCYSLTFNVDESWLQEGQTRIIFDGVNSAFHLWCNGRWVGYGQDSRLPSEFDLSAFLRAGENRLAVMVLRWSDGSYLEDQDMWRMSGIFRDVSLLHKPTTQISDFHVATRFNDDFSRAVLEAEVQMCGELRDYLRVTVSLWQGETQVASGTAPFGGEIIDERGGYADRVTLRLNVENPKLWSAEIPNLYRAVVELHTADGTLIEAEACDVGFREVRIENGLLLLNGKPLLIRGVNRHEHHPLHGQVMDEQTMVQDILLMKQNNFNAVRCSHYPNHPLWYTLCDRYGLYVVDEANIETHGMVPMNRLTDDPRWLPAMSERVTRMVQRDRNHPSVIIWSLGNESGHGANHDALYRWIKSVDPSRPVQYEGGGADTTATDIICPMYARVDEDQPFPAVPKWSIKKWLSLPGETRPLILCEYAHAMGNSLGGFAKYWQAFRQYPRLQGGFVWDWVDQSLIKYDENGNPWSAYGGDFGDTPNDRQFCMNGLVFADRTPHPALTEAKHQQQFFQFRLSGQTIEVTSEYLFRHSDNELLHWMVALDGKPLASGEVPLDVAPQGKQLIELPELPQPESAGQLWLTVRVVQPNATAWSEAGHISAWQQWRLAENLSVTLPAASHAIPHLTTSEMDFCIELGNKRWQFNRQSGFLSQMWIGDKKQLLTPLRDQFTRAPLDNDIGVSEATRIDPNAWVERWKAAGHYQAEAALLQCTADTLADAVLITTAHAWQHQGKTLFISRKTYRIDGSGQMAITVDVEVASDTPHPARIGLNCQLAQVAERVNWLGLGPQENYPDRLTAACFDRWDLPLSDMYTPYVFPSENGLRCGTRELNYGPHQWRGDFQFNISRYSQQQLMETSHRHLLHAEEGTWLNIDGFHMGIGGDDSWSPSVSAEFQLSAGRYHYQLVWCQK

Structure (SMILES)	IC50 [1]	EC50 (Beta-galactosidase)	EC50 [2]	EC50 [3]	EC50 [5]	also measured
Cc1ccc(NCC(=O)c2ccccc2)cc1Cl	5.7 µM (active)	> 40 µM (inactive)	–	–	–	–
OCC1(CCc2ccccc2)CCN(Cc2ccc3nsnc3c2)CC1	–	–	42.2 µM (inactive)	29.1 µM (not active)	> 79.4 µM (not active)	EC50 [4]: 8.41 µM (active)
O=C(c1ccc(=O)oc1)N1CCOCC1	–	–	–	–	–	IC50 [6]: 3.67 µM (active)
Cn1c(=O)cc(SCC(=O)N2CCCC2)c2ccccc21	–	–	> 79.4 µM (inactive)	> 79.4 µM (not active)	> 79.4 µM (not active)	–
CCc1cc2c(=O)n(-c3ccccc3)c(=S)[nH]c2s1	–	–	> 79.4 µM (inactive)	> 79.4 µM (not active)	> 79.4 µM (not active)	IC50 [7]: > 20 µM (inactive); AC50 (Cytochrome P450 2C19): inconclusive
Cc1ccc2c(c1)C(=O)C(=O)N2c1ccc(Cl)cc1	33.2 µM (not active)	> 40 µM (inactive)	–	–	–	–
COc1ccc(CC(=O)Nc2ccc(-c3nc4cc(C)ccc4o3)c(O)c2)cc1OC	–	–	27.8 µM (inactive)	24 µM (not active)	> 79.4 µM (not active)	–
Cc1cc[n+](CC(=O)c2cccc([N+](=O)[O-])c2)c2ccccc12	–	–	–	–	–	EC50 (BJ [8]): > 150 µM (inconclusive); EC50 (BJ [9]): > 150 µM (not active); EC50 [10]: > 150 µM (not active); IC50 [6]: > 99 µM (inactive); EC50 (BJ [11]): 25.1 µM (active)
CN1CCC(N(C)c2nc(-c3ccccc3)nc3ccccc23)CC1	–	–	–	–	–	AC50 [12]: 18.1 µM (active)
CCCN1CCN(CCCNC(=O)c2cc3c(=O)n(C)c4ccccc4c3n2C)CC1	–	–	–	–	–	AC50 [12]: 34.7 µM (active)
C/C(=N\NC(=O)COc1ccccc1-c1ccccc1)c1ccccn1	3.73 µM (active)	> 40 µM (inactive)	–	–	–	AC50 [13]: 4.58 µM (active); AC50 (INS1): 1.32 µM (active); EC50 [14]: 1.05 µM (active); EC50 (Streptococcus): 4.08 µM (active)
S=C(N/N=C/c1ccc(Cl)cc1)N1CCOCC1	7.99 µM (active)	> 40 µM (inactive)	–	–	–	–
COc1ccc2nc(C)cc(Nc3ccc(N4CCOCC4)cc3)c2c1	–	–	–	–	–	EC50 [15]: 1.79 µM (active); EC50 [16]: 27 µM (active); AC50 [12]: 17.4 µM (active)

Source: ChEMBL document CHEMBL1201862, “PubChem BioAssay data set” (2004)
